This experiment deals with streptavidin (Streptomyces avidinii, UniProt P22629). The experiment can be described thus: DNA nanoswitch gel electrophoresis assay of biotin-streptavidin dissociation kinetics. It is filed as binding. The following applies: for dissociation time: 150 mM salt, multiplied by two to represent a single biotin-streptavidin interaction. From the text: Linkers were designed according to protocols for long (2580 bp) and short (600 bp) loops as described herein. […] All other oligos were the same as those used previously. Briefly, looped constructs were made by mixing a long single-stranded DNA (M13mp18, in this case) with over 121 oligos that are complementary along its length. […] The constructs come together by self-assembly with a temperature ramp heating and cooling them.
Recognizing that the nanoswitch conformation informs the receptor-ligand binding state (bound or unbound), and that the conformation can be observed on a gel, an assay to measure bulk interaction kinetics was developed. The assay, conceptually shown in FIG. 7, proceeds as follows: 1) form a looped nucleic acid (DNA) construct that relies on a receptor and a ligand being bound to each other, 2) quench the interaction between the receptor and the ligand, for example, with excess receptor or ligand to prevent rebinding following dissociation, 3) monitor the relative amount of looped construct over time to measure kinetics.
Linear double-stranded DNA constructs 7249 base pairs (bp) in length were self-assembled by combining the single-stranded M13 bacteriophage genome with 121 complementary oligos. (See also Halvorsen K et al., 2011). Two of the oligos were labeled with single biotins and placed 2580 bp from each other, such that interaction with streptavidin induced the formation of a 2580 bp loop in the structure. […] The entire array of 16 conditions with five time points each plus controls was then run on a single 96 lane agarose gel (FIG. 8).
To determine the biotin-streptavidin dissociation kinetics, an image of the gel was analyzed using publicly available software (ImageJ). The gel analysis tool in ImageJ was used to measure the integrated intensity of the band containing looped construct, and this quantity was normalized by the integrated intensity of a reference band in the same lane from a DNA ladder, which was added to the construct prior to starting experiments. Individual time constants for each experimental condition were determined by fitting a single exponential decay to the data using an error weighted least squares fitting.

streptavidin, sequence (P22629 25-183, species assumed): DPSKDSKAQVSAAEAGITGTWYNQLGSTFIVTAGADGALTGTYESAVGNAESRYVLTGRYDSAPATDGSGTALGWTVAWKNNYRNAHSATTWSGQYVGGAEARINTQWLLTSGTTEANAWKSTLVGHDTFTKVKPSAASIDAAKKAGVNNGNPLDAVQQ

For the molecule `O=C(O)CCCC[C@@H]1SC[C@@H]2NC(=O)N[C@@H]21` [biotin], the dissociation time runs as follows: (25° C.) 148 ± 10 h; (37° C.) 11.2 ± 3 h. Moreover, the “time constants, range over the conditions tested” value (16 conditions: four salts, four temperatures (4° C. to 50° C., 5 mM to 500 mM)) is on record as “half of an hour to two months”. In addition, the “time constants, range (FIG. 8 legend)” value (16 experimental conditions, FIG. 8 table) was “less than 1 hour to over 1000 hours”. Besides, the “variation of off-rate with temperature” value (at a given salt concentration, from 4° C. to 50° C.) is reported as “over 100 fold”. Besides, where the note is “at a given temperature, from 5 mM to 500 mM”, the “change of off-rate with salt” value was “less than 2 fold”. Also, the “fastest off-rate measured (as a time)” value (high temperature) turned out to be 40 min.

(Values after patent publication US9914958B2, “Nucleic acid-based linkers for detecting and measuring interactions” (President and Fellows of Harvard College, priority 2011, dated 2018).)
